Measurements published in patent US7153875B2, “Heterocyclic derivatives for the treatment of cancer and other proliferative diseases” (Incyte San Diego, priority 2001, dated 2006).

Structure (SMILES)	melting point
COc1ccccc1-c1cc(-c2ccc(/C=C3\SC(=O)NC3=O)cc2)cc2c1OCO2 [Compound 4, 4-[3-(2-Methoxyphenyl)-4,5-methylenedioxyphenyl]-benzylidene-2,4-thiazolidinedione]	227 to 228 °C (dec.)
COc1ccc(-c2ccc(/C=C3\SC(=S)NC3=O)cc2)cc1C12CC3CC(CC(C3)C1)C2 [Compound 6, 4-[3-(1-Adamantyl)-4-methoxyphenyl]-benzylidene-2-thioxo-4-thiazolidinedione]	313 to 317 °C
COc1ccc(-c2ccc3cc(CC4SC(=O)NC4=O)ccc3c2)cc1C12CC3CC(CC(C3)C1)C2 (stereo not shown) [Compound 9, 6-[3-(1-Adamantyl)-4-methoxyphenyl]-naphthalen-2-yl-methyl-2,4-thiazolidinedione]	251 to 253 °C
COCOc1ccc(-c2ccc(/C=C3\SC(=O)NC3=O)cc2)cc1C12CC3CC(CC(C3)C1)C2 [Compound 10, 4-[3-(1-Adamantyl)-4-methoxymethoxyphenyl]-benzylidene-2,4-thiazolidinedione]	253 to 254.5 °C
O=C1NC(=O)C(Cc2ccc3cc(-c4ccc(O)c(C56CC7CC(CC(C7)C5)C6)c4)ccc3c2)S1 (stereo not shown) [Compound 16, 6-[3-(1-Adamantyl)-4-hydroxyphenyl]-naphthalen-2-yl-methyl-2,4-thiazolidinedione]	270.5 to 272 °C
COc1ccc(-c2ccc3cc(C4SC(=O)NC4=O)ccc3c2)cc1C12CC3CC(CC(C3)C1)C2 (stereo not shown) [Compound 23, 5-[6-(3-[1-Adamantyl]-4-methoxyphenyl)-naphthalen-2-yl]-2,4-thiazolidinedione]	205 to 207 °C
O=C1NC(=O)C(c2ccc3cc(-c4ccc(O)c(C56CC7CC(CC(C7)C5)C6)c4)ccc3c2)S1 (stereo not shown) [Compound 24, 5-[6-(3-[1-Adamantyl]-4-hydroxyphenyl)-naphthalen-2-yl]-2,4-thiazolidinedione]	312 to 314.5 °C
CC(C)(C)c1cc(-c2ccc(/C=C3\SC(=O)NC3=O)cc2)ccc1O [Compound 39, 4-[3-(t-Butyl)-4-hydroxy-phenyl]benzylidene-2,4-thiazolidinedione]	256 to 257 °C
CC(C)(C)c1cc(-c2ccc(/C=C3\SC(=O)NC3=O)cn2)ccc1O [Compound 40]	303 to 304 °C
CC1(c2cc(-c3ccc(/C=C4\SC(=O)NC4=O)cn3)ccc2O)CCCCC1 [Compound 47]	293 to 295 °C
CC(c1ccc(-c2ccc(O)c(C34CC5CC(CC(C5)C3)C4)c2)nc1)C1SC(=O)NC1=O (stereo not shown) [Compound 52, {1-[6-(3-Adamantan-1-yl-4-hydroxy-phenyl)-pyridin-3-yl]-ethyl}-thiazolidine-2,4-dione]	169 to 171 °C
C/C(=C1/SC(=O)NC1=O)c1ccc(-c2ccc(O)c(C34CC5CC(CC(C5)C3)C4)c2)nc1 [Compound 54, (Z)-{1-[6-(3-Adamantan-1-yl-4-hydroxy-phenyl)-pyridin-3-yl]-ethylidene}-thiazolidine-2,4-dione]	181 to 182 °C
C/C(=C1\SC(=O)NC1=O)c1ccc(-c2ccc(O)c(C34CC5CC(CC(C5)C3)C4)c2)nc1 [Compound 55, (E)-{1-[6-(3-Adamantan-1-yl-4-hydroxy-phenyl)-pyridin-3-yl]-ethylidene}-thiazolidine-2,4-dione]	224 to 225 °C

Now from value to compound:

melting point	Structure (SMILES)
307 to 308.5 °C	O=C1NC(=O)/C(=C/c2ccc(-c3ccc(O)c(C45CC6CC(CC(C6)C4)C5)c3)cc2)S1 [Compound 7, 4-[3-(1-Adamantyl)-4-hydroxyphenyl]benzylidene-2,4-thiazolidinedione]
315 to 318 °C	O=C1NC(=O)/C(=C/c2ccc(-c3ccc(O)c(C45CC6CC(CC(C6)C4)C5)c3)nc2)S1 [Compound 33]
305 to 308 °C	O=C1NC(=O)/C(=C/c2ccc(-c3cc(F)c(O)c(C45CC6CC(CC(C6)C4)C5)c3)cc2)S1 [Compound 34, 4-[3-(1-Adamantyl)-4-hydroxy-5-fluoro-phenyl]benzylidene-2,4-thiazolidinedione]
224 to 226 °C	O=C1NC(=O)/C(=C/c2ccc(-c3ccc(O)c(C45CC6CC(CC(C6)C4)C5)c3)c(O)c2)S1 [Compound 35, 4-[3-(1-Adamantyl)-4-hydroxy-phenyl]-5-hydroxybenzylidene-2,4-thiazolidinedione]
275 to 280 °C	Cc1cc(O)c(C23CC4CC(CC(C4)C2)C3)cc1-c1ccc(/C=C2\SC(=O)NC2=O)cc1 [Compound 36, 4-[3-(1-Adamantyl)-4-hydroxy-6-methyl-phenyl]benzylidene-2,4-thiazolidinedione]
307 to 310 °C	O=C1NC(=O)/C(=C/c2ccc(-c3cc(F)c(O)c(C45CC6CC(CC(C6)C4)C5)c3)nc2)S1 [Compound 37]
323 to 328 °C	O=C1NC(=O)/C(=C/c2ccc(-c3cc(Cl)c(O)c(C45CC6CC(CC(C6)C4)C5)c3)cc2)S1 [Compound 38, 4-[3-(1-Adamantyl)-4-hydroxy-5-chloro-phenyl]benzylidene-2,4-thiazolidinedione]
270 to 274 °C	O=C1NC(=O)/C(=C/c2ccc(-c3ccc(O)c(C45CC6CC(CC(C6)C4)C5)c3)c(F)c2)S1 [Compound 41, 4-[3-(1-Adamantyl)-4-hydroxy-phenyl]-5-fluorobenzylidene-2,4-thiazolidinedione]
307 to 309 °C	O=C1NC(=O)/C(=C/c2ccc(-c3ccc(O)c(C45CC6CC(CC(C6)C4)C5)c3)cc2F)S1 [Compound 42, 4-[3-(1-Adamantyl)-4-hydroxy-phenyl]-6-fluorobenzylidene-2,4-thiazolidinedione]
339 to 342 °C	O=C1NC(=O)/C(=C/c2ccc(-c3cc(Cl)c(O)c(C45CC6CC(CC(C6)C4)C5)c3)nc2)S1 [Compound 43]
211 to 216 °C	COc1cc(-c2ccc(/C=C3\SC(=O)NC3=O)cn2)cc(C23CC4CC(CC(C4)C2)C3)c1O [Compound 44]
238 to 240 °C	O=C1NC(=O)/C(=C/c2ccc(-c3ccc(O)c(C45CC6CC(CC(C6)C4)C5)c3)c(OC(F)(F)F)c2)S1 [Compound 46, 4-[3-(1-Adamantyl)-4-hydroxy-phenyl]-5-triflouromethoxybenzylidene-2,4-thiazolidinedione]
> 280 °C (dec.)	O=C1NC(=O)/C(=C/c2ccc(-c3ccc(O)c(C45CC6CC(CC(C6)C4)C5)c3)c(Cl)c2)S1 [Compound 48, 4-[3-(1-Adamantyl)-4-hydroxy-phenyl]-5-chlorobenzylidene-2,4thiazolidinedione]
> 305 °C (dec.)	Cc1cc(/C=C2\SC(=O)NC2=O)ccc1-c1ccc(O)c(C23CC4CC(CC(C4)C2)C3)c1 [Compound 48, 4-[3-(1-Adamantyl)-4-hydroxy-phenyl]-5-methylbenzylidene-2,4-thiazolidinedione]
298 to 302 °C	CCOc1cc(/C=C2\SC(=O)NC2=O)ccc1-c1ccc(O)c(C23CC4CC(CC(C4)C2)C3)c1 [Compound 49, 4-[3-(1-Adamantyl)-4-hydroxy-phenyl]-5-ethoxybenzylidene-2,4-thiazolidinedione]
262 to 264 °C	O=C1NC(=O)/C(=C/c2ccc(-c3ccc(O)c(C45CC6CC(CC(C6)C4)C5)c3)c([N+](=O)[O-])c2)S1 [Compound 50, 4-[3-(1-Adamantyl)-4-hydroxy-phenyl]-5-nitrobenzylidene-2,4-thiazolidinedione]
167 to 169 °C	Nc1cc(/C=C2\SC(=O)NC2=O)ccc1-c1ccc(O)c(C23CC4CC(CC(C4)C2)C3)c1 [Compound 51, 4-[3-(1-Adamantyl)-4-hydroxy-phenyl]-5-aminobenzylidene-2,4-thiazolidinedione]
291 to 293 °C	O=C1NC(=O)/C(=C/c2ccc(-c3cc([N+](=O)[O-])c(O)c(C45CC6CC(CC(C6)C4)C5)c3)nc2)S1 [Compound 53]
